Experimental data reported in US20250340604A1, “BLOOD-BRAIN BARRIER TRANSLOCATING PEPTIDES AND RELATED MOLECULES AND METHODS OF USE THEREOF” (Enkefalos Biosciences, Inc., priority 2022, published 2025).
Read-outs that look alike come from different tables or passages of the source. One block for each substance: values may come before it. Ends that are not written are not given here.

How the values were obtained:
[1] = monovalent trastuzumab knob-hole cyclotide fusions, 25 mg/kg, 24 hours, brain homogenate ELISA, versus trastuzumab alone; FIG. 8B
Experimental: Female C57BL/6 mice, age 10-12 weeks, were weighed and administered purified trastuzumab antibody or trastuzumab antibody-monovalent cyclotide fusions, made monovalent by knobs-holes fusion (targeting IGF1R, LRP1, or RAGE receptors) in triplicate at 25 mg/kg in phosphate buffered saline (PBS). After 24 hours, mice were perfused with Dulbecco's PBS containing anesthetic via aortic puncture and brains were removed. One brain hemisphere was transferred to 4% paraformaldehyde in PBS for 24 hours at 4° C., then transferred to PBS at 4° C., paraffin embedded, thin-sectioned using a microtome, and slices were mounted on slides for immunohistochemistry (IHC). The other brain hemisphere was flash frozen and stored at −80° C. prior to homogenization. […]
Antibodies present in brain were quantified by enzyme-linked immunosorbent assay (ELISA). […] Plates were washed 4 times with TBST and once with TBS, developed with 3,3′,5,5′-tetramethylbenzidine (TMB) for 2 minutes, quenched with 1 N sulfuric acid, and read at 450 nm in a SpectraMax plate reader. […] Amounts of antibodies (e.g., antibody fusion proteins or antibody alone) present in brain homogenates were determined by interpolation from each standard curve and were expressed as percents of injected dose per gram of brain (FIG. 8B).

[2] = target: T1, mouse transferrin receptor (mTfR) (Mus musculus, UniProt Q62351); assay: Flow cytometry internalization assay, mTfR-expressing HEK293F cells; format: cell-based; settings: 50 nM Alexafluor 488 labeled protein, 4 h at 37° C., HEK293F cells transfected with mTfR; FIG. 2
T1 construct: expressed in transfected cells; host or cells: HEK293F
T1 sequence (Q62351 whole entry): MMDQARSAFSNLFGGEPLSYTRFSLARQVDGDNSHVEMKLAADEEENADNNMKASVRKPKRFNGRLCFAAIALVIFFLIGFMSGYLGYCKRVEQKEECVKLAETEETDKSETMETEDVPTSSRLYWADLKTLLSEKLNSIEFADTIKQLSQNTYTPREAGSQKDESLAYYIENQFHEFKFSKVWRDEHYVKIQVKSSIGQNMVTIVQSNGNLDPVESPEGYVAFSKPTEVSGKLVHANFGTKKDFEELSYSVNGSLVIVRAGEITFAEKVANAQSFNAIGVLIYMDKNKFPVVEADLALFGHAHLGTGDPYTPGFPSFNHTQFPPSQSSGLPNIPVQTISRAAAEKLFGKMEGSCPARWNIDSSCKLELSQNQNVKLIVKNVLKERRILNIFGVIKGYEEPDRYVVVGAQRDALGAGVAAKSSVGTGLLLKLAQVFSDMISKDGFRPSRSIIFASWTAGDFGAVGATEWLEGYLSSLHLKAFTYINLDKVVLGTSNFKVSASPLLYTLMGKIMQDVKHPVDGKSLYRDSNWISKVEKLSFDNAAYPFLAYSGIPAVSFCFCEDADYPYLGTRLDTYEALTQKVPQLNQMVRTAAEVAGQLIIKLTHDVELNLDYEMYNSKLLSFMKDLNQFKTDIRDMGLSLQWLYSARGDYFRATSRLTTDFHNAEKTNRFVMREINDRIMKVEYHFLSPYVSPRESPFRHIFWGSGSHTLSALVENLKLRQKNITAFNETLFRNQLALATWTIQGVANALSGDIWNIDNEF
Experimental: (§1) Free dye was then removed by passage through one to two desalting columns. HEK293F cells were first serially passaged two to three times, then transfected with expression constructs encoding human or mouse transferrin receptor ([…], respectively), and grown for 2-3 days at 37° C., 8% CO2, 130 rpm shaking in preparation for the assay. […] Cells were then pelleted, supernatant discarded, and resuspended in 40 μL fresh media containing 250 nM anti-488 quenching antibody (or media lacking 488 quenching antibody as a control), incubated on ice for 5 min, pelleted, supernatant discarded, washed with 200 μL cold FACS buffer, pelleted, supernatant discarded, and resuspended in 200 μL cold FACS buffer. Each sample was then subjected to FACS analysis using the FITC fluorescence detection channel, using Gate 1 (forward scatter linear vs. side scatter linear) to select live cells with normal morphology, using Gate 2 (side scatter area vs. side scatter linear) to select single cells, and measuring logarithmic FITC signal for 20,000-50,000 cells per sample. Subsequent data analysis was carried out using the FlowJo software package.

[3] = target: T2, human transferrin receptor (hTfR) (Homo sapiens, UniProt P02786); assay: Flow cytometry internalization assay, hTfR-expressing HEK293F cells; format: cell-based; settings: 50 nM Alexafluor 488 labeled protein, 4 h at 37° C., HEK293F cells transfected with hTfR; FIG. 2
T2 construct: expressed in transfected cells; host or cells: HEK293F
T2 sequence (P02786 whole entry): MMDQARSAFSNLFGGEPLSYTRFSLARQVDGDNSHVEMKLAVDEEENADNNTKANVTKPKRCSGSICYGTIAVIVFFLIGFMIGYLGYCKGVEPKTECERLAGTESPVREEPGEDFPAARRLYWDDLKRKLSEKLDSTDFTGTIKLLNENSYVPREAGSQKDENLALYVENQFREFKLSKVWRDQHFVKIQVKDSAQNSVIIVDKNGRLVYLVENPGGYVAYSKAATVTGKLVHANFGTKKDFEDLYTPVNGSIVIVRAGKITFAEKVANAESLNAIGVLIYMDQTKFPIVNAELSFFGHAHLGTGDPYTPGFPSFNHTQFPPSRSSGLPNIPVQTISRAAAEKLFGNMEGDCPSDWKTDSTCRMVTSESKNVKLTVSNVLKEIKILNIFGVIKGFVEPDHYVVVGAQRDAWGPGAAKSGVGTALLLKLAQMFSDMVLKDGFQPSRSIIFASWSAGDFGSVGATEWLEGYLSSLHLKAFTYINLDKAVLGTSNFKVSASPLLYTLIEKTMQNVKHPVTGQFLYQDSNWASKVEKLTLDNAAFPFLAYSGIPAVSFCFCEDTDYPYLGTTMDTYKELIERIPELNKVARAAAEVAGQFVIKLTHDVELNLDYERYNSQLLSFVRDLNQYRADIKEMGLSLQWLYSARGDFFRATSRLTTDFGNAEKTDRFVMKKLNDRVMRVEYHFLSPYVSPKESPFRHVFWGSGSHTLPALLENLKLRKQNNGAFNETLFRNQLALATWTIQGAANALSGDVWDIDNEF
Experimental: as §1

[4] = mouse, even after repeat dose; cited from earlier work
[5] = rat, even after repeat dose; cited from earlier work

Substance: cyclotide binding Hu LRP-1; loop 1 peptide WLTLGIANKGIDVYDVK (SEQ ID NO:39); cyclotide SEQ ID NO:85 (GGVCWLTLGIANKGIDVYDVKCRRDSDCPGACICRGNGYCGSGSD; not fully specified (bridges); cysteine pairing not given here) [CYC30]
- trastuzumab delivery to the brain (percents of injected dose per gram of brain) [1]: did not exhibit enhancement

- internalization (mean FITC fluorescence intensity) [2]: not
- internalization (mean FITC fluorescence intensity) [3]: not
Substance: adalimumab

Substance: Ziconitide
- anti-drug antibodies (ADAs) [4]: no anti-drug antibodies (ADAs) were detectable
- anti-drug antibodies (ADAs) [5]: no anti-drug antibodies (ADAs) were detectable

Substance: cyclotide binding Hu LRP-1; loop 1 peptide WYETKTKLYVGVVK (SEQ ID NO:43); cyclotide SEQ ID NO:89 (GGVCWYETKTKLYVGVVKCRRDSDCPGACICRGNGYCGSGSD; not fully specified (bridges); cysteine pairing not given here) [CYC34]
- trastuzumab delivery to the brain (percents of injected dose per gram of brain) [1]: greatest enhancement
